The species named for data set [1] is Mus musculus. Description: Minimum effective dose for immunostimulant activity in mice was determined; Toxic. The data set is classed as functional, organism-based.
A short description of data set [2]: Solubility was determined. In kind it is physicochemical.
The species entered for data set [3] is Mus musculus. Description: Minimum effective dose for immunostimulant activity in mice was determined. In kind it is functional. Particulars: read-out: MED.

The structures appear in SMILES notation.

As a reminder, the solubility is the concentration that dissolves in the medium under given conditions. The low end stands for little dissolved substance, the high end for much dissolved substance.

On to `c1cc(NC2CCCCC2)c2c(ccc3c[nH]nc32)n1`, for which the MED result in the data set filed under Mus musculus [1] was “Toxic”. Besides, the solubility in data set [2] is at least 25000 µg/mL.

Take `Cc1cc(NC2CCCCC2)c2c(ccc3c[nH]nc32)n1`: in data set [2], the solubility was at least 25000 µg/mL. Besides, the minimal effective dose in the data set filed under Mus musculus [3] worked out at 1.85 mg/kg.

`COc1ccc(Nc2cc(C)nc3ccc4c[nH]nc4c23)cc1`: the minimal effective dose in the data set filed under Mus musculus [3] is 16.7 mg/kg.

For `Cc1cc(Nc2cccnc2)c2c(ccc3c[nH]nc32)n1`, the minimal effective dose in the data set listed under Mus musculus [3] is over 50 mg/kg.

In data set [2], `CCCCc1ccc(Nc2ccnc3ccc4c[nH]nc4c23)cc1` displayed a solubility of over 6000 µg/mL. Moreover, the minimal effective dose in the data set filed under Mus musculus [3] is 6.25 mg/kg.

In data set [2], `Cc1ccc(Nc2cc(C)nc3ccc4c[nH]nc4c23)cc1` came in with a solubility of under 6000 µg/mL. The minimal effective dose in the data set filed under Mus musculus [3] worked out at 6.25 mg/kg.

In the case of `CCCCOc1ccc(Nc2ccnc3ccc4c[nH]nc4c23)cc1`, the solubility in data set [2] was over 6000 µg/mL. Also, the minimal effective dose in the data set listed under Mus musculus [3] is 3.13 mg/kg.

With `Cc1cc(Nc2ccc(O)cc2)c2c(ccc3c[nH]nc32)n1`, the minimal effective dose in the data set listed under Mus musculus [3] was determined as 16.7 mg/kg.

As for `Cc1cc(Nc2ccc(SCC(=O)O)cc2)c2c(ccc3c[nH]nc32)n1`, the minimal effective dose in the data set filed under Mus musculus [3] is over 50 mg/kg.

Compound `Clc1ccc(Nc2ccnc3ccc4c[nH]nc4c23)cc1` had a solubility in data set [2] of under 6000 µg/mL. In the data set filed under Mus musculus [3], the minimal effective dose was found to be 12.5 mg/kg.

Compound `Cc1cc(Nc2ccc(OCC3CCCCC3)cc2)c2c(ccc3c[nH]nc32)n1` returned a solubility in data set [2] of under 6000 µg/mL. The minimal effective dose in the data set filed under Mus musculus [3] was determined as 0.62 mg/kg.

`CCc1ccc(Nc2cc(C)nc3ccc4c[nH]nc4c23)cc1` gave a solubility in data set [2] of over 6000 µg/mL. In addition, the minimal effective dose in the data set filed under Mus musculus [3] stood at 12.5 mg/kg.

For `c1cc(Nc2ccc(OCC3CCCCC3)cc2)c2c(ccc3c[nH]nc32)n1`, in data set [2], the solubility was under 6000 µg/mL. Also, the minimal effective dose in the data set listed under Mus musculus [3] stood at 0.62 mg/kg.

Take `CCCCOc1ccc(Nc2cc(C)nc3ccc4c[nH]nc4c23)cc1`: the solubility in data set [2] is under 6000 µg/mL. The minimal effective dose in the data set listed under Mus musculus [3] turned out to be 1.85 mg/kg.

`CCCc1ccc(Nc2cc(C)nc3ccc4c[nH]nc4c23)cc1`: in data set [2], the solubility was over 6000 µg/mL. Besides, the minimal effective dose in the data set filed under Mus musculus [3] was 6.25 mg/kg.

`Cc1cc(Nc2ccc(OCc3ccccc3)cc2)c2c(ccc3c[nH]nc32)n1` yielded a solubility in data set [2] of under 6000 µg/mL. The minimal effective dose in the data set filed under Mus musculus [3] turned out to be 0.62 mg/kg.

Turning to `Cc1cc(Nc2ccc(Cl)cc2)c2c(ccc3c[nH]nc32)n1`, in data set [2], the solubility was under 6000 µg/mL. The minimal effective dose in the data set listed under Mus musculus [3] turned out to be 1.85 mg/kg.

These data come from ChEMBL document CHEMBL1159173, “Investigation of side-chain sar, formulation and injection site toleration of pyrazolo[3,4-f]quinoline derivatives: a potent series of in vivo active immunostimulants” (Bioorg Med Chem Lett, 1993).
